# Experimental data from ChEMBL document CHEMBL4477248, “Blinded predictions of binding modes and energies of HSP90-α ligands for the 2015 D3R grand challenge” (Bioorg Med Chem, 2016).
# Activity calls are given as the source filed them. No cut-off for these calls is given here.
# Molecular target: Heat shock protein HSP 90-alpha (Homo sapiens, UniProt P07900)
# Assay: Inhibition of HSP90alpha (unknown origin)
Structure (SMILES),inhibition,IC50
Cn1c2c([n+](C)c1CCl)C(=O)c1ccccc1C2=O,Active,
O=C1c2ccccc2-c2ccccc21,,> 1 µM
O=c1[nH]c2cc(CNS(=O)(=O)c3cccnc3)ccc2n1-c1cc(Cl)c(O)cc1O,,0.005 µM
CCOC(=O)CC1(C)Oc2ccccc2O1,inactive,
O=C1c2ccccc2C(=O)c2c1ccc1nonc21,Active,

# Second part, the compound after the results:
inhibition,IC50,Structure (SMILES)
inactive,,CC(=O)Oc1ccc([N+](=O)[O-])c2ccccc12
,> 1 µM,COC(=O)c1cc(C(=O)c2ccc(OC)cc2)cc(C(=O)OC)c1OC
Active,,CC(=O)Oc1ccc2c(=O)c(Cc3ccccc3)c(C)oc2c1OC(C)=O
,> 1 µM,CCn1c(=O)n(-c2ccccc2OC)c2ccccc21
,> 1 µM,COc1cc(F)c(Cl)cc1C(=O)c1ccc(OCc2ccccc2)cc1
